Values quoted from earlier work, collected in patent US9040513B2, “Process for preparing platinum-carbene complexes” (CENTRE NATIONAL DE LA RECHERCHE SCIENTIFIQUE, priority 2010, dated 2015).

Target: integrin αvβ3 (Homo sapiens, UniProt P05106+P06756)
Settings: background statement

Sequence of integrin αvβ3 (P06756 31-889 limits assumed): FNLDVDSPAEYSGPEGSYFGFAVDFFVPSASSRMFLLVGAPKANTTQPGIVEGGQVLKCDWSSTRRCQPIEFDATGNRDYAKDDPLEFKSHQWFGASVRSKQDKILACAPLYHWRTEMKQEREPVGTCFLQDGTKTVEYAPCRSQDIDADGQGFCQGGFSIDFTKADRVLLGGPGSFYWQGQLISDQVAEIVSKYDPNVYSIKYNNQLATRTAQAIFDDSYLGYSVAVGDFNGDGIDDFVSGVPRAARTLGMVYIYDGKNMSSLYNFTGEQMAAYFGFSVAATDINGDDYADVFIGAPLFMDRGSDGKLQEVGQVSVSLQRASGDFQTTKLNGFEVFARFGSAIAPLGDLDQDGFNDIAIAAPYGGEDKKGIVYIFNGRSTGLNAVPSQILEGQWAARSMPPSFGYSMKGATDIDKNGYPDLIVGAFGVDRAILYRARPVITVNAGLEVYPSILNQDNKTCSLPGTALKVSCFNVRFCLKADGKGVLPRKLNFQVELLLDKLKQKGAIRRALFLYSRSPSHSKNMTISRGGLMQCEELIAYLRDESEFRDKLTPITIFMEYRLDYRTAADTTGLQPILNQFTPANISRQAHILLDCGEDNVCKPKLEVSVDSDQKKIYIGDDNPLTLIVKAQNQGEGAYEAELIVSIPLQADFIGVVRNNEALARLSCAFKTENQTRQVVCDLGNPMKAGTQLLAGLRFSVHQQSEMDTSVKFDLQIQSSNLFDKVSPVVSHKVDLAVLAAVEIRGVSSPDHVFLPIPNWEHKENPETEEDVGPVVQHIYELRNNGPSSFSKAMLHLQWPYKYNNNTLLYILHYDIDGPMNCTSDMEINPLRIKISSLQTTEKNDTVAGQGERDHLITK
Sequence of integrin αvβ3 (P06756 891-1048 partner limits assumed): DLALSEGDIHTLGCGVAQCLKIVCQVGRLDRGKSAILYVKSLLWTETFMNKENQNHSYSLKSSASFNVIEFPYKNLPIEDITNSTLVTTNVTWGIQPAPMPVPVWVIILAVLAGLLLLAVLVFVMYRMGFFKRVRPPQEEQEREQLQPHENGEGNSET
Sequence of integrin αvβ3 (P05106 27-788): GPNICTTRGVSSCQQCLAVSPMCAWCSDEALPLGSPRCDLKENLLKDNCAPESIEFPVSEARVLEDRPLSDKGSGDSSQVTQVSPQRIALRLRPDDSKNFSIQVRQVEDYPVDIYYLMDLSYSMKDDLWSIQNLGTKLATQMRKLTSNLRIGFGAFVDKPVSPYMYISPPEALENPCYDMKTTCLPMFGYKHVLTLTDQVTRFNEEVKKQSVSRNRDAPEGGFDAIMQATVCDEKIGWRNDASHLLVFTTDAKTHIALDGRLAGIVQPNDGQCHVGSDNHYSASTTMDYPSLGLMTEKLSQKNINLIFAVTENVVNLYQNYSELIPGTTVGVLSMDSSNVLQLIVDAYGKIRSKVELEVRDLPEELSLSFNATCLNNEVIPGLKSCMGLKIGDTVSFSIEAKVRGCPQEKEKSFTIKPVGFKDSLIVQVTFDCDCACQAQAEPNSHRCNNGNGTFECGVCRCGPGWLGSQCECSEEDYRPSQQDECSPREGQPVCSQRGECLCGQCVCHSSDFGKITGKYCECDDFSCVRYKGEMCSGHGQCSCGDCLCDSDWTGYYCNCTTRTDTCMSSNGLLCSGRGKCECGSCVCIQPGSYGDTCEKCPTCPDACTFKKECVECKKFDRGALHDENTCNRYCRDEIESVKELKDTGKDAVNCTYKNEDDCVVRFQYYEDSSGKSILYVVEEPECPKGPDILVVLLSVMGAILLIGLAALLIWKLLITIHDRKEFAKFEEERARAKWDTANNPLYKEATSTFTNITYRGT

- affinity for integrin αvβ3: high affinity
Substance: cyclo(RGDfK)
